From patent US7265091B2, “Methods and compositions for treating male erectile dysfunction” (The Regents of the University of California, priority 2000, dated 2007) come the findings set out here.

Test [1] deals with nNOS-positive nerve fibers in dorsal and intracavernous nerves. As to conditions: 2 & 4 μg VEGF, week 6; not statistically significant.
The subject of test [2] is cavernous smooth muscle cells (CSMC). The settings on record: 4 hr.
Protocol: Primary aorta SMC cultures were prepared similarly with aortas isolated from 16-week-old male rats.
Cell migration assays were performed in 6.5-mm Transwell chambers of Corning Costar Corporation (Cambridge, Mass.). The Transwell inserts (upper chambers) were bathed in a solution containing 13.4 μg/ml fibronectin in PBS at 37° C. for 1 hr and allowed to air-dry. The dried upper chambers were then placed in the lower chambers, each of which contained 700 μl of serum-free DMEM supplemented with 0.1% BSA and 0 to 500 ng/ml of VEGF. SMC that had been grown to 70% confluence were further conditioned in serum-free DMEM (containing 0.1% BSA) for 2 hr and then trypsinized. The trypsinized cells were washed in PBS and resuspended at a concentration of 80,000 cells per ml in serum-free DMEM (containing 0.1% BSA). One hundred μl of the cell suspension was then added to each upper chamber. After 4 hr of incubation at 37° C., all liquid in the upper and lower chambers was removed by aspiration. The membranes in the upper chambers were subsequently fixed in 1% buffered formalin for 5 min and stained with 2% crystal violet. Non-migratory cells on the upper side of the membranes were scraped off with cotton swabs. Well locations were marked on the membranes and total cells per well were counted visually in a masked fashion. Well locations were then correlated with the concentrations of VEGF in the wells. […]
Test [3] relates to Erectile Dysfunction Induced by Hypercholesterolemia in a Rat Model. The experiment in a line: Erectile function in rats fed a high cholesterol diet (Example 5). As to conditions: 6 months cholesterol diet, 4 months after intracavernous treatment. In kind it is in vivo. The method, then: Twenty-one Sprague-Dawley rats were used. All rats were fed a 2.5% cholesterol diet with added lard starting at 2 weeks of age for 6 months. The rats were divided into three groups. All groups after two months of a high cholesterol diet underwent serum evaluation of cholesterol and intracavernous injection of saline or treatment. Group 1, the control group, received intracavernous injection of saline, group 2, the VEGF group, received intracavernous injection of 4 ug of VEGF, and group 3, the AAV-BDNF group received 15 ug of BDNF. After six months of cholesterol diet and 4 months of treatment, all rats were subjected to cavernous nerve electrostimulation, cavernosometry with intracavernous papaverine injection, and infusion cavernosometry with heparinized saline to measure erectile function.

Test [4] concerns blood vessels and nerve fibers in the penis. The experiment in a line: Penile tissue histology, nNOS staining and electron microscopy (Example 9). Format: in vivo, rat. The settings on record: 3 months after bilateral cavernous nerve freezing. As for the experimental part: Three months old Sprague-Dawley rats (N=30) were used: 6 underwent a sham operation; 24 underwent bilateral cavernous nerve freezing and then randomly divided into four groups of 6 each. The four groups of rats received intracavernous injection of one of the following: 1) phosphate buffered saline (PBS), 2) VEGF protein (4 μg), 3) adeno-associated virus (AAV)-BDNF, and 4). VEGF+AAV-BDNF. Erectile function was assessed by cavernous nerve electrostimulation 3 months later and samples of penile tissue were obtained for electron microscopy and immunohistochemical studies.

Test [5] has as its system cavernous smooth muscle cells (CSMC). The settings on record: CSMC from rats of all ages, three days, serum-free medium.
The test system of test [6] is established venogenic erectile dysfunction in castrated rats. The settings on record: castrated rats with venous leak, 1 month following VEGF treatment. As for the experimental part:
These animals (n=8) were treated with intracavernous VEGF protein and then after one month cavernosometry repeated to measure the effect of VEGF treatment.
(§1) A 1.5 cm oblique incision was made in the lower abdominal skin extending from the midline just above the penile hilum to below the level of the glans about 1 cm lateral to the midline. The skin was sharply dissected from the anterior surface of the penis and then the penis was retracted anteriorly using a towel clamp placed around it atraumatically with the foreskin left intact. Using blunt dissection the penile base and crura were exposed. The ischiocavernosus muscles were sharply dissected off the anterior surface of the crus until the white of the tunica albuginea of the corpora cavernosa was identified. The crus was then gently cannulated using a 23 gage butterfly needle, and saline flush with a visual erectile response was used to confirm that the needle tip was truly intracavernosal. The intracavernosal injections were then administered with either VEGF protein (Calbiochem, La Jolla, Calif. #676472) at the dosage 4 ug/injection (in 0.1 cc PBS with 0.1% BSA), AAV-VEGF (10^10 viral particles in 0.1 cc NS), AAV-LacZ (10^10 viral particles in 0.1 cc NS), or 0.1 ml NS alone. The AAV-VEGF and AAV-LacZ constructs were a generous gift from Dr. Yuet W. Kan (Howard Hughes Medical Research Institute, San Francisco, Calif.).^19,20 Following injection, the needle was left in place for 5 minutes and then removed to allow the medication to diffuse throughout the cavernosal space. Immediately thereafter, pinpoint electrocautery was applied to the needle hole for hemostasis and then the wound was closed and the animal recovered as above.
To perform pharmacologic cavemosometry, both the right and left crura were separately cannulated using 23 gauge butterfly needles as described above. […] The baseline ICP was recorded (flaccid ICP) and then a dose of papavarine (1 mg in 0.1 cc NS) was administered through the infusion cannula. […] After 5 minutes more, the ICP was again recorded (ICP after papavarine) and the infusion started. […] By slowly adjusting the inflow rate, an intracorporal pressure of 100 cm H2O (erectile pressure) was reached and the infusion rate required to maintain this pressure recorded (the maintenance rate). After this pressure was steady for 20 seconds, the infusion was terminated and the change in ICP over the subsequent 60 seconds was recorded (the drop rate).

The subject of test [7] is venogenic erectile dysfunction in castrated rats. As to the kind of experiment: Pharmacologic cavernosometry, prevention trial in castrated rats (Experiment 2). Format: in vivo, rat. As to conditions: castrated rats treated at castration, cavernosometry 9 weeks after castration.
From the text: For the prevention trial of VEGF in rats with venogenic erectile ED, adult males were castrated and immediately treated with hormone, intracavernosal VEGF. […] Control animals received an silastic implant containing saline (n=3), an intracavernous injection of normal saline (n=3) or an […] transfection vector expressing lacZ reporter gene without the VEGF gene (AAV-LacZ, n=11).
as §1
Following castration, testosterone- or saline-filled silastic implants were placed in the subcutaneous tissue of the anterior abdominal wall, as previously described.^17 Implants were prepared using sterile silastic tubing (Dow Coming, Midland, Mich. #602-265, inner diameter 0.062″) that was filled with testosterone propionate powder (Sigma Chemical, St. Louis, Mo.) with the aid of wall suction.
To perform pharmacologic cavemosometry, both the right and left crura were separately cannulated using 23 gauge butterfly needles as described above. One cannula was flushed with sterile heparinized saline (100 U heparin/ml NS) and attached to a pressure detector for continuous intracorporal pressure (ICP) monitoring as previously described.^11 The contralateral cannula was attached to an infusion pump (Harvard Pump, Southwick, Mass. #55-2222), filled with sterile dilute heparinized saline (20 U heparin/ml NS). The baseline ICP was recorded (flaccid ICP) and then a dose of papavarine (1 mg in 0.1 cc NS) was administered through the infusion cannula. Five minutes was allowed for the papavarine to diffuse throughout the corpora and then the infusion cannula was flushed with heparinized saline and the pressure monitor cannula vented to normalize ICP after flushing. After 5 minutes more, the ICP was again recorded (ICP after papavarine) and the infusion started. An infusion rate of 0.05 ml/min was started and increased (by 0.05 ml/min every 10 seconds) until the ICP started to rise. Subsequent increases in inflow rate were made only after the ICP reached a plateau pressure. By slowly adjusting the inflow rate, an intracorporal pressure of 100 cm H2O (erectile pressure) was reached and the infusion rate required to maintain this pressure recorded (the maintenance rate). After this pressure was steady for 20 seconds, the infusion was terminated and the change in ICP over the subsequent 60 seconds was recorded (the drop rate).

Values joined by “and” are separate entries in the source; they are usually repeats but may differ in a detail not shown here. Equal entries are not always repeated.

On to VEGF, for which, in test [1], the “recovery of nNOS-positive nerve fibers in dorsal and intracavernous nerves” value is reported as “moderate recovery”. For the same substance, in test [2] (CSMC from 1-week-old rats), the “VEGF concentration of peak CSMC migration” value was found to be 1 ng/mL. The “optimal dosage of VEGF for CSMC migration” value in test [2] (CSMC from young and old rats except 1-week-old) is 10 ng/mL. Also, in test [3], the “effect on erectile dysfunction caused by high cholesterol diet” value was “seem to reverse the erectile dysfunction” and the “sustained intracavernous pressures during the pharmacologic erection phase of cavernosometry, vs high cholesterol controls” value is on record as “significantly higher”. Also, the “nNOS positive nerve fibers in the dorsal nerves compared to PBS group” value in test [4] is “increased number”. Moreover, the “optimal dosage of VEGF for CSMC growth rate” value in test [5] was determined as 12.5 ng/mL. Besides, in test [6], the “Drop Rate in 1 min.” value was 17.4 cm H2O and 17.4(+/−24) cm H2O; the “Flaccid ICP” value turned out to be 25.3 cm H2O; the “ICP After Papavarine” value is 84 cm H2O and 83.9 cm H2O; the “Maintenance Rate” value is 0.08 ml/min and 0.08(+/−0.15) ml/min. In addition, in test [7], the “Drop Rate in 1 min.” value is given as 9.0(+/−20) cm H2O, the “Flaccid ICP” value was 27.8 cm H2O, the “ICP After Papavarine” value is on record as 85.0(+/−28) cm H2O and the “Maintenance Rate” value is given as 0.04(+/−0.09) ml/min.
